Data on two compounds can be found in patent publication US12427180B2, “Treatment of respiratory tract diseases and infections with ascorbic acid compositions” (RENOVION, INC., priority 2016, dated 2025).

Series [1] can be described thus: Stability: oxidized glutathione and reduced ascorbic acid after storage. The series is classed as physicochemical. The note with it: ascorbic acid only, pH not given; Ambient; stored at 5° C. for 4 weeks. The protocol: The amount of glutathione and ascorbic acid oxidiation were determined for Composition 1 at pH 5.5, 6.0, and 6.5. Oxidized glutathione is associated with the generation of protein-carbonyls via glutathionlyation, which occurs when oxidized glutathione dissociates and attaches to proteins. The % oxidized glutathione (% GSSG) was determined after 4 weeks of storage of Composition 1 at pH 5.5, 6.0, and 6.5 under N2-sparged and ambient conditions. Additionally, when ascorbic acid is oxidized into dehydroascorbate (DHA), DHA can break down and result in the formation of protein adducts in process called ascorbylation (Simpson et al., Biochim biophys Acta 2000; 1501:12-24). The % reduced ascorbic acid maintained in Composition 1 (% ASC) was determined after 4 weeks of storage of Composition 1 at pH 5.5, 6.0, and 6.5 under N2-sparged (anaerobic) and ambient conditions. Specifically, nitrogen-sparged samples were mixed under anaerobic conditions sparged with nitrogen, and the samples were packaged using nitrogen bubbling. Ambient samples were mixed under room air conditions and were not bubbled with nitrogen. The formulations were stored at 5° C. for 4 weeks, and the percent of oxidized glutathione (GSSG) and ascorbic acid (ASC) was measured for each sample according to standard techniques.

The test system of series [2] is Pa UAB-NM-1 (nonmucoidy P. aeruginosa clinical isolate from lung). Kind of series: MIC against Pa UAB-NM-1. The series is classed as cell-based, Pseudomonas aeruginosa. The note with it: Anaerobic (+nitrate), 12 hrs. The protocol: (§1) The MICs of Composition 1 (glutathione, ascorbic acid, and HCO3); glutathione and ascorbic acid; and HCO3 were tested against clinical isolates, including Burkholderia cepacia, Pseudomonas aeruginosa (Schroeter) Migula (ATCC 27853), Pseudomonas aeruginosa (Schroeter) Migula (ATCC 9027), Pseudomonas aeruginosa (Schroeter) Migula (ATCC BAA-2114), Klebsiella pneumonia, methicillin resistant Staphylococcus aureus; laboratory strains of Moraxella catarrhalis, Stenotrophomonas maltophilia, Acinetobacter baumannii; and eight samples of mucoid and nonmucoid Pseudomonas aeruginosa clinical isolates from human lung. The MIC for laboratory clinical isolate Pseudomonas aeruginosa (Schroeter) Migula (ATCC BAA-47 (PAO1)) was also tested. The MICs were determined under anaerobic conditions on media supplemented with nitrate, under aerobic conditions supplemented with nitrate, or under ambient conditions.
(§2) The clinical isolates were inoculated in duplicate on agar plates overnight under anaerobic conditions at 36° C.±1.0° C. in a 96-well plate. Laboratory isolates of Burkholderia cepacia were also grown in duplicate overnight under aerobic conditions at 36° C.±1.0° C. in a 96-well plate. […] MICs were determined via visual inspection and OD620.

For the next series, the system named is MRSA UAB-1. The series is described as follows: MIC against MRSA UAB-1. The series is classed as cell-based, Staphylococcus aureus. As to conditions: Anaerobic (+nitrate), 12 hrs. As for the experimental part:
as §1, §2

For series [3], the system named is Pa UAB-M-2 (mucoidy P. aeruginosa clinical isolate from lung). The series is described as follows: MIC against Pa UAB-M-2. The series is classed as cell-based, Pseudomonas aeruginosa. As to conditions: Anaerobic (+nitrate), 12 hrs. The protocol: as §1, §2
The subject of another series is MRSA UAB-3. The series is described as follows: MIC against MRSA UAB-3. The series is classed as cell-based, Staphylococcus aureus. The note with it: Anaerobic (+nitrate), 12 hrs. The protocol:
as §1, §2

In series [4] the test system is Pa UAB-NM-5 (nonmucoidy P. aeruginosa clinical isolate from lung). Kind of series: MIC against Pa UAB-NM-5. The note with it: Anaerobic (+nitrate), 12 hrs. The series is classed as cell-based, Pseudomonas aeruginosa. The protocol: as §1, §2
The test system of series [5] is Pseudomonas aeruginosa (Schroeter) Migula (ATCC BAA-47 (PAO1)). Kind of series: MIC against Pa BAA-47 (PAO1). The series is classed as cell-based. As to conditions: Anaerobic (+nitrate), 12 hrs. As for the experimental part: as §1, §2
Series [6] deals with Pa UAB-NM-3 (nonmucoidy P. aeruginosa clinical isolate from lung). The series is described as follows: MIC against Pa UAB-NM-3. The series is classed as cell-based, Pseudomonas aeruginosa. As to conditions: Anaerobic (+nitrate), 12 hrs. The protocol:
as §1, §2

Take `O=C1O[C@H]([C@@H](O)CO)C(O)=C1O` [Ascorbic Acid Only, ascorbic acid]: in series [1], the “% ASC (reduced ascorbic acid maintained)” value worked out at 77.88%.

In the case of `O=C([O-])O.[Na+]` [HCO3, sodium bicarbonate], the MIC in series [2] was 12.5%(12; in the series on MRSA UAB-1, 25% (12; in series [3], 12.5%(12; against MRSA UAB-3, 25% (12; in series [4], 12.5% (12; in series [5] it was 12.5% (12. Besides, the MIC in series [6] is listed as 12.5% (12.
